This experiment concerns the target human α-thrombin (Homo sapiens, UniProt P00734). Briefly: In vitro assay for determining proteinase inhibition, human α-thrombin. It is filed as biochemical. The method, then: The assays were carried out at 25° C. in 0.05 M TRIS buffer pH 7.4, 0.15 M NaCl, 0.1% PEG. Trypsin assays also contained 1 mM CaCl2.
Concentrations of stock solutions of Z-GPR-afc were determined from measurements of absorbance at 380 nm of the 7-amino-4-trifluoromethyl coumarin produced upon complete hydrolysis of an aliquot of the stock solution by thrombin.
Times required to achieve equilibration between enzyme and inhibitor were determined in control experiments. Initial velocities of product formation in the absence (Vo) or presence of inhibitor (Vi) were measured. Assuming competitive inhibition, and that unity is negligible compared Km /[S], […] (where [S], [I], and e respectively represent the total concentrations, of substrate, inhibitor and enzyme), the equilibrium constant (Ki) for dissociation of the inhibitor from the enzyme can be obtained from the dependence of Vo /Vi on [I] shown in equation 1.

Where [1] appears, read: thrombin, 25° C., 0.05 M TRIS buffer pH 7.4, 0.15 M NaCl, 0.1% PEG, read-out: Inhibitory activity, Ki.

Read-outs that look alike come from different tables or passages of the source.

Take `Cc1nc(N)ccc1CNC(=O)Cn1c(C)cc(S(=O)(=O)N2CCCC2)c(N)c1=O`: the inhibition constant (Ki) (in general, a dissociation constant, usually derived from enzyme kinetics or from competition with a known ligand) under setting [1] is under 5 nM.

Take `Cc1nc(N)ccc1CNC(=O)Cn1c(C)cc(S(=O)(=O)NCC2CCC2)c(N)c1=O`: the Ki was under 5 nM.

On to `Cc1nc(N)ccc1CNC(=O)Cn1c(C)cc2c(c1=O)NCCS2(=O)=O`, for which the Ki under setting [1] was over 5 nM.

As for `Cc1nc(N)ccc1CNC(=O)Cn1c(C)cc2c(c1=O)NCN(CC1CC1)S2(=O)=O`, the Ki is under 5 nM.

Consider `Cc1nc(N)ccc1CNC(=O)Cn1c(C)cc2c(c1=O)NCC(c1ccccc1)S2(=O)=O` (centres unmarked), for which the inhibition constant Ki under setting [1] was over 5 nM.

For the origin of these results see patent publication US6117888A, “Thrombin inhibitors” (Merck & Co., Inc., priority 1999, dated 2000).
